Reference: patent US20210085640A1, “ACYLATED CATECHIN POLYPHENOLS AND METHODS OF THEIR USE FOR THE TREATMENT OF CANCER” (Flagship Pioneering Innovations V, Inc., priority 2018, published 2021)

What was measured:
Type in all cases: cell-based
[1] = test system: MCF7 breast cancer cells; experiment: Cancer cell survival (CellTiter-Glo), MCF7; details: Homo sapiens, 72 h
Outline: (§1)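 Cells seeded at 4×10^3 cells/well, incubated overnight, then treated in triplicate at nine concentrations for 72 h at 37 C, 5% CO2. Viability by CellTiter-Glo luminescence, survival % normalized to untreated and medium controls; IC50 derived.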

[2] = test system: PC-3 prostate cancer cells; experiment: Cancer cell survival (CellTiter-Glo), PC-3; details: Homo sapiens, PC-3 cells, 72 h
Outline: as §1

[3] = test system: A-431 skin cancer cells; experiment: Cancer cell survival (CellTiter-Glo), A-431; details: Homo sapiens, A-431 cells, 72 h
Outline: as §1

[4] = test system: T24 bladder cancer cells; experiment: Cancer cell survival (CellTiter-Glo), T24; details: Homo sapiens
Outline: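 T24 cells seeded at 4×10^3 cells/well overnight, then exposed 72 h at 37 C, 5% CO2 to nine concentrations in triplicate. Survival measured by CellTiter-Glo luminescence relative to untreated and medium controls; IC50 derived.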

[5] = test system: HCT 116 colorectal cancer cells; experiment: Cancer cell survival (CellTiter-Glo), HCT 116; details: Homo sapiens, HCT 116 cells, 72 h
Outline: as §1

[6] = test system: Daudi lymphoma cancer cells; experiment: Cancer cell survival (CellTiter-Glo), Daudi; details: Homo sapiens, 72 h
Outline: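 Daudi cells (4×10^3/well) were exposed for 72 h at 37 °C to nine concentrations of compound, added as 10× solutions spanning 1 μM–10 mM (fatty acids) or 100 nM–1 mM (others). CellTiter-Glo luminescence gave % survival versus untreated, medium-blank corrected; IC50 derived.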

[7] = Human Regulatory T Cell Differentiation Assay; details: human, primary naïve CD4+ T cells isolated from PBMCs, 1 uM, read-out: Cell viability % DMSO
Outline: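 Naïve CD4+ T cells isolated from healthy-donor PBMCs, cultured 6 days with 5 ng/ml TGF-β, 100 U/ml IL-2 and CD3/CD28/CD2 activator, with or without compound. Flow cytometry of live cells; Tregs as CD4+CD25+FOXP3+ percentage of total CD4+ T cells, compared by one-way ANOVA.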

[8] = test system: AGS stomach cancer cells; experiment: Cancer cell survival (CellTiter-Glo), AGS
Outline: as §1

[9] = test system: A549 lung cancer cells; experiment: Cancer cell survival (CellTiter-Glo), A549; details: Homo sapiens, 72 h
Outline: as §1

[10] = 101 nM, read-out: Cell survival at given concentration
[11] = 318 nM, read-out: Cell survival at given concentration
[12] = 1 μM, read-out: Cell survival at given concentration
[13] = 3 μM, read-out: Cell survival at given concentration
[14] = 10 μM, read-out: Cell survival at given concentration
[15] = 32 μM, read-out: Cell survival at given concentration
[16] = 100 μM, read-out: Cell survival at given concentration
[17] = 316 μM, read-out: Cell survival at given concentration
[18] = 1000 μM, read-out: Cell survival at given concentration

Oc1ccc(C=Cc2cc(O)cc(O)c2)cc1 [resveratrol]
viability at 0.101 µM [1, 10]: 94%
viability at 0.318 µM [1, 11]: 96%
viability at 1 µM [1, 12]: 99%
viability at 3 µM [1, 13]: 99%
viability at 10 µM [1, 14]: 95%
viability at 32 µM [1, 15]: 96%
viability at 100 µM [1, 16]: 85%
viability at 316 µM [1, 17]: 27%
viability at 1000 µM [1, 18]: 0%
IC50 ([1]; Table 5.1): 212 µM
viability at 0.101 µM [2, 10]: 101%
viability at 0.318 µM [2, 11]: 102%
viability at 1 µM [2, 12]: 101%
viability at 3 µM [2, 13]: 102%
viability at 10 µM [2, 14]: 103%
viability at 32 µM [2, 15]: 96%
viability at 100 µM [2, 16]: 95%
viability at 316 µM [2, 17]: 32%
viability at 1000 µM [2, 18]: 0%
IC50 ([2]; Table 8.1): 248 µM
viability at 0.101 µM [3, 10]: 101%
viability at 0.318 µM [3, 11]: 101%
viability at 1 µM [3, 12]: 102%
viability at 3 µM [3, 13]: 102%
viability at 10 µM [3, 14]: 98%
viability at 32 µM [3, 15]: 87%
viability at 100 µM [3, 16]: 65%
viability at 316 µM [3, 17]: 13%
viability at 1000 µM [3, 18]: 0%
IC50 ([3]; Table 9.1): 132 µM
viability at 0.101 µM ([4]; T-24, 101 nM, 72 h, read-out: Cell survival at given concentration): 100%
viability at 0.318 µM ([4]; T-24, 318 nM, 72 h, read-out: Cell survival at given concentration): 102%
viability at 1 µM ([4]; T-24, 1 μM, 72 h, read-out: Cell survival at given concentration): 100%
viability at 3 µM ([4]; T-24, 3 μM, 72 h, read-out: Cell survival at given concentration): 101%
viability at 10 µM ([4]; T-24, 10 μM, 72 h, read-out: Cell survival at given concentration): 92%
viability at 32 µM ([4]; T-24, 32 μM, 72 h, read-out: Cell survival at given concentration): 1%
viability at 100 µM ([4]; T-24, 100 μM, 72 h, read-out: Cell survival at given concentration): 0%
viability at 316 µM ([4]; T-24, 316 μM, 72 h, read-out: Cell survival at given concentration): 0%
viability at 1000 µM ([4]; T-24, 1000 μM, 72 h, read-out: Cell survival at given concentration): 0%
IC50 ([4]; T-24, 72 h, Table 3.1, read-out: 1050): 15.1 µM
viability at 0.101 µM [5, 10]: 103%
viability at 0.318 µM [5, 11]: 98%
viability at 1 µM [5, 12]: 98%
viability at 3 µM [5, 13]: 101%
viability at 10 µM [5, 14]: 98%
viability at 32 µM [5, 15]: 65%
viability at 100 µM [5, 16]: 0%
viability at 316 µM [5, 17]: 0%
viability at 1000 µM [5, 18]: 0%
IC50 ([5]; Table 6.1): 37.4 µM
viability at 0.101 µM [6, 10]: 100%
viability at 0.318 µM [6, 11]: 101%
viability at 1 µM [6, 12]: 102%
viability at 3 µM [6, 13]: 102%
viability at 10 µM [6, 14]: 101%
viability at 32 µM [6, 15]: 14%
viability at 100 µM [6, 16]: 0%
viability at 316 µM [6, 17]: 0%
viability at 1000 µM [6, 18]: 0%
IC50 ([6]; Table 4.1): 23.9 µM
viability at 6 days, 1 µM [7]: < 90%
viability at 0.101 µM ([8]; 72 h, 101 nM, read-out: Cell survival at given concentration): 100%
viability at 0.318 µM ([8]; 72 h, 318 nM, read-out: Cell survival at given concentration): 95%
viability at 1 µM ([8]; 72 h, 1 μM, Table 10.1, read-out: Cell survival at given concentration): 101%
viability at 3 µM ([8]; 72 h, 3 μM, Table 10.1, read-out: Cell survival at given concentration): 98%
viability at 10 µM ([8]; 72 h, 10 μM, Table 10.1, read-out: Cell survival at given concentration): 100%
viability at 32 µM ([8]; 72 h, 32 μM, Table 10.1, read-out: Cell survival at given concentration): 101%
viability at 100 µM ([8]; 72 h, 100 μM, Table 10.1, read-out: Cell survival at given concentration): 94%
viability at 316 µM ([8]; 72 h, 316 μM, read-out: Cell survival at given concentration): 33%
viability at 1000 µM ([8]; 72 h, 1000 μM, read-out: Cell survival at given concentration): 0%
IC50 ([8]; Table 10.1): 252 µM
viability at 0.101 µM [9, 10]: 98%
viability at 0.318 µM [9, 11]: 99%
viability at 1 µM [9, 12]: 98%
viability at 3 µM [9, 13]: 98%
viability at 10 µM [9, 14]: 98%
viability at 32 µM [9, 15]: 96%
viability at 100 µM [9, 16]: 88%
viability at 316 µM [9, 17]: 50%
viability at 1000 µM [9, 18]: 0%
IC50 ([9]; Table 7.1): 317 µM
